Source: PubChem BioAssay AID2060360 (Molecular Pharmacology Branch, DTP, NCI, 2025)

Test system: 282377-053-R-J1-PDC tumor spheroids, viability
Assay: Anticancer human tumor 282377-053-R-J1-PDC patient-derived colon adenocarcinoma cell line growth inhibition [TAK]
Conditions: spheroids with HUVEC and MSC; for IC50: curve of first compound; for viability, T/C: stronger effect = lower value
Excerpt: Combinatorial screen of targeted agents with TAK-243 and ipatasertib in multi-cell type tumor spheroids
A high-throughput screen of multi-cell type tumor spheroids was designed to identify active combinations of targeted small molecules and TAK-243 or ipatasertib. Complex spheroids include a stromal component modeled by human endothelial cells (HUVEC) and fibroblasts modeled by human mesenchymal stem cells (MSCs). The concentration ranges selected for each drug and investigational agent were based upon clinically achievable concentrations if the clinical Cmax of the agent was known.
Compounds. The drugs and investigational agents: TAK-243 (785004), ipatasertib (767898), everolimus (733504), selumetinib (741078), bortezomib (756655), trametinib (758246), ixazomib (758254), vemurafenib (761431), dabrafenib (764134), sapanisertib (764658), alpelisib (765974), and copanlisib (816437), were obtained from the National Cancer Institute (NCI) Developmental Therapeutics Program Chemical Repository. The FDA-approved anticancer drug set is available from the NCI Developmental Therapeutics Program. […] The stock solutions were prepared in dimethyl sulfoxide (DMSO, Sigma-Aldrich, St. Louis, MO, cat. D2650) at 800-fold the tested concentration and stored at -70 degrees C prior to their use. All drugs and investigational agents were tested over a range starting from a high concentration at or near the clinical Cmax and decreasing in half-log increments. If the clinical Cmax for an agent had not been determined, the highest concentration tested was 10 microM.
NCI60 Cell Culture. NCI60 cell lines were obtained from the NCI Developmental Therapeutics Program Tumor Repository. For each lot of cells, the Repository performed Applied Biosystems AmpFLSTR Identifiler testing with PCR amplification to confirm consistency with the published Identifier STR profile for each cell line. Cells were kept in continuous culture for no more than 20 passages. The optimal seeding densities for each of the cell lines at each time point assessed were determined prior to performing the concentration response studies. Briefly, the NCI60 human tumor lines were grown as monolayers in RPMI 1640 medium supplemented with 10% FBS and 2 mmol/L L-glutamine.
An additional 2 lines were from the NCI60 cell line panel including melanomas, MALME-3M and SK-MEL-2. Pooled donor human umbilical vein endothelial cells (HUVEC, Lonza, cat. CC-2519) and human mesenchymal stem cells (hMSC, Lonza, cat. PT-2501) were purchased from Lonza (Walkersville, MD).
PDMR cell lines were grown in complete medium (DC medium): Dulbecco's modified Eagle's medium (DMEM)/F12 supplemented with 5% fetal bovine serum (FBS), 2 mM L-glutamine, 100 U/mL penicillin and 100 µg/ml streptomycin, 0.4 µg/ml hydrocortisone, 10 ng/ml epidermal growth factor (EGF) recombinant human protein, 24 µg/mL adenine, and 0.1 mg/mL primocin. During culture from frozen stock vials, PDMR cells were cultured in the same medium containing 10 µM Y-27632 (see Table 3). The PDCs were cultured in complete DMEM/F12 media without 10 microM Y-27632 dihydrochloride for at least two passages prior to the screen. The pooled donor HUVEC and hMSC were cultured in endothelial cell growth medium 2 (PromoCell, Heidelberg, Germany, cat. C-22011) and mesenchymal stem cell growth medium 2 (PromoCell, cat. C-28009), respectively. For all experiments, HUVEC and hMSC were used at passages </=5.
For the pre-screen, cell seeding densities were determined from a titration spanning the range from 5,000 to 313 cells per well. The mct-spheroids including 60% malignant cells, 25% HUVEC and 15% MSC dispensed as a mixture into U-bottom Ultra-Low Attachment 384-well plates (Corning, NY)
High-throughput Drug Combination Screening.
Prior to their inoculation into 384-well plates, malignant cells, HUVEC, and hMSC were removed from T flasks using TrypLE express (Thermo Fisher Scientific, cat. 12605036) and harvested by centrifugation for 5 min at 233 x g. […]
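Note: spheroids exposed to drugs for seven days before readout.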

Work on COC1CC2CCC(C)C(O)(O2)C(=O)C(=O)N2CCCCC2C(=O)OC(C(C)CC2CCC(OCCO)C(OC)C2)CC(=O)C(C)C=C(C)C(O)C(OC)C(=O)C(C)CC(C)C=CC=CC=C1C (stereo not given) + CC(C)NCC(C(=O)N1CCN(c2ncnc3c2C(C)CC3O)CC1)c1ccc(Cl)cc1 yielded an IC50 (second compound 0.3 µM) of over 100 nM, an IC50 (second compound 0.949 µM) of over 100 nM and an IC50 (second compound 3 µM) of over 100 nM. The IC50 (second compound 9.49 µM) was over 100 nM, the IC50 (second compound 30 µM) was 8.56 nM and the viability, T/C (second compound 0.3 µM, first compound 0.000316 µM) was 93.1%. The viability, T/C (second compound 0.3 µM, first compound 0.001 µM) was 91.7%, the viability, T/C (second compound 0.3 µM, first compound 0.00316 µM) was 94% and the viability, T/C (second compound 0.3 µM, first compound 0.01 µM) was 95%. The viability, T/C (second compound 0.3 µM, first compound 0.0316 µM) was 93.7%, the viability, T/C (second compound 0.3 µM, first compound 0.1 µM) was 91.4% and the viability, T/C (second compound 0.949 µM, first compound 0.000316 µM) was 93.3%. The viability, T/C (second compound 0.949 µM, first compound 0.001 µM) was 87%, the viability, T/C (second compound 0.949 µM, first compound 0.00316 µM) was 91.8% and the viability, T/C (second compound 0.949 µM, first compound 0.01 µM) was 91.8%. For the same compound, the viability, T/C (second compound 0.949 µM, first compound 0.0316 µM) was 87.7%, the viability, T/C (second compound 0.949 µM, first compound 0.1 µM) was 89.4% and the viability, T/C (second compound 3 µM, first compound 0.000316 µM) was 82.2%. The viability, T/C (second compound 3 µM, first compound 0.001 µM) was 87.6%, the viability, T/C (second compound 3 µM, first compound 0.00316 µM) was 80.9% and the viability, T/C (second compound 3 µM, first compound 0.01 µM) was 82.2%. The viability, T/C (second compound 3 µM, first compound 0.0316 µM) was 82.2%, the viability, T/C (second compound 3 µM, first compound 0.1 µM) was 79.1% and the viability, T/C (second compound 9.49 µM, first compound 0.000316 µM) was 81.2%. It also gave a viability, T/C (second compound 9.49 µM, first compound 0.001 µM) of 77.8%, a viability, T/C (second compound 9.49 µM, first compound 0.00316 µM) of 73.5% and a viability, T/C (second compound 9.49 µM, first compound 0.01 µM) of 74.9%. It also gave a viability, T/C (second compound 9.49 µM, first compound 0.0316 µM) of 65.8%, a viability, T/C (second compound 9.49 µM, first compound 0.1 µM) of 60.4% and a viability, T/C (second compound 30 µM, first compound 0.000316 µM) of 61.6%. For the same compound, the viability, T/C (second compound 30 µM, first compound 0.001 µM) was 64.3%, the viability, T/C (second compound 30 µM, first compound 0.00316 µM) was 55.8% and the viability, T/C (second compound 30 µM, first compound 0.01 µM) was 48.3%. The viability, T/C (second compound 30 µM, first compound 0.0316 µM) was 39.9% and the viability, T/C (second compound 30 µM, first compound 0.1 µM) was 31%.
